Reference: ChEMBL document CHEMBL4152303, “Structure-activity relationships of imidazothiazinones and analogs as antagonists of the cannabinoid-activated orphan G protein-coupled receptor GPR18” (Eur J Med Chem, 2018)
pEC50, pIC50, pKi: −log10 of the molar value.

Legend:
[1] = molecular target: Cannabinoid receptor 2 (Homo sapiens, UniProt P34972); assay: Displacement of [3H]CP55940 from recombinant human CB2 receptor expressed in CHO cell membranes after 2 hrs by liquid scintillation counting method; details: for inhibition: concentration not given here
[2] = molecular target: Cannabinoid receptor 1 (Homo sapiens, UniProt P21554); assay: Displacement of [3H]CP55940 from recombinant human CB1 receptor expressed in CHO cell membranes after 2 hrs by liquid scintillation counting method; details: for inhibition: concentration not given here
[3] = molecular target: T1, G-protein coupled receptor 55 (Homo sapiens, UniProt Q9Y2T6); assay: Agonist activity at recombinant human GPR55 expressed in CHO cells assessed as increase in beta-arrestin recruitment incubated for 60 mins measured for 1 sec by luminescence assay; format: functional, cell-based
[4] = molecular target: T2, N-arachidonyl glycine receptor (Homo sapiens, UniProt Q14330); assay: (§1) Agonist activity at recombinant human GPR18 expressed in CHO cells assessed as increase in beta-arrestin recruitment incubated for 60 mins measured for 1 sec by luminescence assay; format: functional, cell-based
T2 sequence (Q14330 whole entry): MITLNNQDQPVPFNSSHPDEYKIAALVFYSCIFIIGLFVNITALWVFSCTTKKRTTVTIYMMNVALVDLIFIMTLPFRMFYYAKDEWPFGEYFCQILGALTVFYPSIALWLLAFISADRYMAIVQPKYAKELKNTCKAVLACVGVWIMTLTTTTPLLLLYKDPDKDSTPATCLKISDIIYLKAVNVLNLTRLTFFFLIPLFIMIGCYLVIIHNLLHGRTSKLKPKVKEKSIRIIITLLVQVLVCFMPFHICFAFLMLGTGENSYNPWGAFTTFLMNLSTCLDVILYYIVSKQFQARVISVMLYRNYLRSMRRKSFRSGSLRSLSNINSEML

[5] = molecular target: T3, N-arachidonyl glycine receptor (Homo sapiens) (UniProt Q14330); assay: as §1; format: functional, cell-based
T3 sequence (whole entry): T2 sequence (Q14330 whole entry)

[6] = molecular target: T1, G-protein coupled receptor 55; assay: Antagonist activity at recombinant human GPR55 expressed in CHO cells assessed as inhibition of lysophosphatidylinositol-induced beta-arrestin recruitment preincubated for 60 mins followed by lysophosphatidylinositol addition for 90 mins measured for 1 sec by luminescence assay; format: functional, cell-based
[7] = molecular target: T2, N-arachidonyl glycine receptor; assay: (§2) Antagonist activity at recombinant human GPR18 expressed in CHO cells assessed as inhibition of delta9-THC-induced beta-arrestin recruitment preincubated for 60 mins followed by delta9-THC addition for 90 mins measured for 1 sec by luminescence assay; format: functional, cell-based
[8] = molecular target: T3, N-arachidonyl glycine receptor (Homo sapiens); assay: as §2; format: functional, cell-based

Cannabinoid receptor 1, sequence (P21554 whole entry): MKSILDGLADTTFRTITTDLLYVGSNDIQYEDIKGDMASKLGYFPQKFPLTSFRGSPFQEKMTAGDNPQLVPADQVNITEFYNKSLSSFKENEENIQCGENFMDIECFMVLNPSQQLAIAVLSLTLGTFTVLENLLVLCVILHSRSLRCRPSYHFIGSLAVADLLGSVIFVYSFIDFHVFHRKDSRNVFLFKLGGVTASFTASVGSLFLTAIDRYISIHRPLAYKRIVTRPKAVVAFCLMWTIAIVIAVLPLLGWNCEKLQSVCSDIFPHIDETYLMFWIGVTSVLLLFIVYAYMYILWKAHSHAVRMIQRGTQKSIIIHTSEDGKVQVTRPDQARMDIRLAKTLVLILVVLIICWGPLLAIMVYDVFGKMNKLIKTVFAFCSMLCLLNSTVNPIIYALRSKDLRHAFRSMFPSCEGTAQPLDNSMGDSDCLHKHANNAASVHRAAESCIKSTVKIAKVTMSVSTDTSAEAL
T1 sequence (Q9Y2T6 whole entry): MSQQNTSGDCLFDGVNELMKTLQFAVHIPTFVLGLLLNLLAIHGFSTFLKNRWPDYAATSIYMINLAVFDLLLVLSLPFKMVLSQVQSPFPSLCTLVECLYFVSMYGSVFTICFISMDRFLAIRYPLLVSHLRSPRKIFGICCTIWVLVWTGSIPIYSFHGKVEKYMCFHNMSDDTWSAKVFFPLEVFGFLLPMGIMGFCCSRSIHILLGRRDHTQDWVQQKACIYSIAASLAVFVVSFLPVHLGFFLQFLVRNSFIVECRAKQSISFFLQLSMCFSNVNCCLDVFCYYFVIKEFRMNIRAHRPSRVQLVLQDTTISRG
Cannabinoid receptor 2, sequence (P34972 whole entry): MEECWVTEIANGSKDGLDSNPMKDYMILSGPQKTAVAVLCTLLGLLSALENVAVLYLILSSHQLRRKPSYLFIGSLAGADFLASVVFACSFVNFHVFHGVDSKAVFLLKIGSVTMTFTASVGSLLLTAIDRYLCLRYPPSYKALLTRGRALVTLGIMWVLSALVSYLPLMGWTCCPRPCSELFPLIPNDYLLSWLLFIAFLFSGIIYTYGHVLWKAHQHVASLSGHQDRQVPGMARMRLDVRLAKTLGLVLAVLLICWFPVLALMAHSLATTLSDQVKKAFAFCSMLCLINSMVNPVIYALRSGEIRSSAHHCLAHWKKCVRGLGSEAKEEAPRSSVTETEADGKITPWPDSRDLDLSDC

SMILES	pKi [1]	inhibition [1] [%]	pKi [2]	inhibition [2] [%]	%max [3] [%]	pEC50 [3]	pEC50 [4]	%max [5] [%]	pIC50 [6]	Imax [6] [%]	pIC50 [7]	Imax [8] [%]	Imax [2] [%]
O=C1/C(=C/c2cccc(OCCCc3ccccc3)c2)N=C2SCCCN12	< 5.00	23	< 5.00	11	-49	< 5.00	< 5.00	-30	5.22	132	5.83	136	–
O=C1NC(SCc2ccc(F)cc2)=N/C1=C\c1cccc(OCc2ccc(Cl)cc2)c1	< 5.00	19	< 5.00	42	-21	< 5.00	< 5.00	23	< 5.00	44	< 5.00	27	–
CN1C(=N)NC(=O)/C1=C/c1cccc(OCc2ccc(Cl)cc2)c1	4.64	–	< 5.00	43	22	< 5.00	< 5.00	6	< 5.00	-5	< 5.00	4	–
O=C1/C(=C/c2cccc(OCCCCOc3ccc(Cl)cc3)c2)N=C2SCCCN12	< 5.00	3	< 5.00	–	11	< 5.00	< 5.00	-16	< 5.00	26	5.62	116	–
CC(C)c1ccc(OCCCCCCOc2cccc(/C=C3\N=C4SCCCN4C3=O)c2)cc1	< 5.00	46	< 5.00	33	45	< 5.00	< 5.00	15	< 5.00	32	< 5.00	24	–
O=C1/C(=C/c2cccc(OCCCCCCOc3ccccc3Cl)c2)N=C2SCCCN12	< 5.00	29	< 5.00	19	0	< 5.00	< 5.00	10	5.47	79	< 5.00	41	–
Cc1ccc(CSC2=N/C(=C\c3cccc(OCc4ccc(Cl)cc4)c3)C(=O)N2C)cc1	< 5.00	25	< 5.00	15	20	< 5.00	< 5.00	7	< 5.00	33	< 5.00	17	–
O=C1NC(SCCc2ccccc2)=N/C1=C\c1cccc(OCc2ccc(Cl)cc2)c1	< 5.00	33	< 5.00	18	21	< 5.00	< 5.00	2	< 5.00	27	5.32	103	–
O=C1/C(=C/c2cccc(OCc3ccc(Cl)cc3)c2)N=C2SCCN12	< 5.00	28	< 5.00	18	-3	< 5.00	< 5.00	1	< 5.00	42	< 5.00	40	–
Cc1ccc(CSC2=N/C(=C\c3cccc(OCc4ccc(Cl)cc4)c3)C(=O)N2)cc1	< 5.00	22	< 5.00	38	-12	< 5.00	< 5.00	4	< 5.00	48	< 5.00	0	–
O=C1NC(=S)N/C1=C\c1cccc(OCc2ccc(Cl)cc2)c1	< 5.00	19	< 5.00	30	5	< 5.00	< 5.00	-14	4.49	118	4.48	165	–
O=C1/C(=C/c2cccc(OCCc3ccccc3)c2)N=C2SCCCN12	< 5.00	19	< 5.00	24	-42	< 5.00	< 5.00	8	4.53	130	< 5.00	16	–
O=C1/C(=C/c2cccc(OCCCOc3ccc(Cl)cc3)c2)N=C2SCCCN12	< 5.00	-2	< 5.00	18	-36	< 5.00	< 5.00	-16	< 5.00	38	5.49	113	–
O=C1NC(SCc2ccc(Cl)cc2)=N/C1=C\c1cccc(OCc2ccc(Cl)cc2)c1	< 5.00	30	< 5.00	36	-10	< 5.00	< 5.00	5	< 5.00	41	< 5.00	35	–
O=C1/C(=C/c2cccc(OCCCCCOc3ccc(Cl)cc3)c2)N=C2SCCCN12	< 5.00	–	< 5.00	8	-21	< 5.00	< 5.00	-38	5.42	124	5.94	123	–
O=C1NC(=S)S/C1=C\c1cccc(OCc2ccc(Cl)cc2)c1	< 5.00	26	< 5.00	47	29	< 5.00	< 5.00	-38	< 5.00	-18	< 5.00	22	–
O=C1NC(=O)/C(=C/c2cccc(OCc3ccc(Cl)cc3)c2)S1	< 5.00	41	5.30	–	22	< 5.00	< 5.00	-1	< 5.00	-1	< 5.00	-10	67
O=C1/C(=C/c2cccc(OCc3ccc(F)cc3)c2)N=C2SCCCN12	< 5.00	46	< 5.00	35	-30	< 5.00	< 5.00	6	5.37	149	< 5.00	3	–
CSC1=N/C(=C\c2cccc(OCc3ccc(Cl)cc3)c2)C(=O)N1C	< 5.00	24	< 5.00	19	-2	< 5.00	< 5.00	-2	< 5.00	35	< 5.00	23	–
O=C1/C(=C/c2cccc(OCCCCCCOc3cccc(Cl)c3)c2)N=C2SCCCN12	< 5.00	46	< 5.00	33	28	< 5.00	< 5.00	0	< 5.00	37	–	55	–
